From patent publication US20030190325A1, “Novel peroxiredoxin defense system from mycobacterium tuberculosis” (priority 2002, published 2003)

Legend:
Lpd (porcine) = target: T1, Lpd (porcine) (Sus scrofa, UniProt P09623); experiment: Counter-test on porcine Lpd; format: biochemical; parameters: key: “NE” means no effect; conditions: at 10 μM
T1 sequence (P09623 36-509): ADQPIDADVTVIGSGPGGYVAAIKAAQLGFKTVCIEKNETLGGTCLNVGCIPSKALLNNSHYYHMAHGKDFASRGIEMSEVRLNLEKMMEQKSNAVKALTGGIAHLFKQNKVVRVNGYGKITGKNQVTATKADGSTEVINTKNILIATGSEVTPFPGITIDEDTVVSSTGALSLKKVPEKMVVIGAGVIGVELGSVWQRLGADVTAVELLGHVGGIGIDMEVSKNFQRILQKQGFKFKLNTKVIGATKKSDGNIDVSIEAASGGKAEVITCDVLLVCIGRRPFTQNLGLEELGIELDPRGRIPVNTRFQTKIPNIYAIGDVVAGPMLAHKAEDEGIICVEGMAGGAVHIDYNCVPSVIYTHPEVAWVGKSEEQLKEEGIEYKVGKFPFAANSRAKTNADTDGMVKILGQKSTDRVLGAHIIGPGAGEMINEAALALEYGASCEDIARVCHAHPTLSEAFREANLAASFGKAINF

αKG-DH (porcine) = experiment: Counter-test on porcine αKG-DH; format: biochemical; parameters: key to αKG-DH (porcine): “NE” means no effect; conditions: at 50 μM
SucB = target: T2, SucB (Mycobacterium tuberculosis, UniProt P9WIS7); experiment: Inhibition constant for the enzyme identified as target: SucB; format: biochemical
T2 construct: Lpd and SucB ORFs were amplified by PCR from M. tuberculosis H37Rv genomic DNA; made in house; host or cells: E. coli BL21(DE3), pET11c, culture supplemented with lipoic acid
T2 sequence (P9WIS7 1-553): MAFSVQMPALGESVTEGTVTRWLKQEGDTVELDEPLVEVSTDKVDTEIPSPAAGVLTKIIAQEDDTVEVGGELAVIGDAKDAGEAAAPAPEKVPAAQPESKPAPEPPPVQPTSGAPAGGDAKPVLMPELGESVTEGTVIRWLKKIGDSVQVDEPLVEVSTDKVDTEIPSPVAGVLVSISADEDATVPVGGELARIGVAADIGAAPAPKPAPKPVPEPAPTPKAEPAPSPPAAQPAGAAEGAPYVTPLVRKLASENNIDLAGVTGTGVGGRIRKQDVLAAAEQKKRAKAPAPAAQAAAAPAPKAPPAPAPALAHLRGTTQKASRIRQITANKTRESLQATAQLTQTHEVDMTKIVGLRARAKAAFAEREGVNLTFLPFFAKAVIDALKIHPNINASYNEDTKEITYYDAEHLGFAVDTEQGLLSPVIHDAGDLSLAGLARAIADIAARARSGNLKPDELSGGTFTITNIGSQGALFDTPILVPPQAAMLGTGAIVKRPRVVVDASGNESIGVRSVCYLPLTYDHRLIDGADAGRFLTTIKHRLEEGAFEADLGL
Text: Table 2 lists the molecular structures of eleven chemical compounds that were identified from the above screen. The first three compounds in Table 2 were further identified as to which of the 3 enzymes (AhpD, Lpd, SucB) each inhibited.

TR (bovine) = experiment: Counter-test on bovine TR; format: biochemical; parameters: key: “NE” means no effect; conditions: at 10 μM
[1] = target: the molecule itself; experiment: X-ray crystal structure at 2.0 Å, homotrimer

In the case of O=C(O)CN1C(=O)/C(=C\c2ccc(-c3cccc(Cl)c3Cl)o2)SC1=S [3229-2113], the “Lpd (porcine)” value (Lpd (porcine)) is reported as “NE at 10 μM”, the “αKG-DH (porcine)” value (αKG-DH (porcine)) is reported as “NE at 50 μM” and the Ki (SucB) is reported as 6 µM. For the same molecule, the “TR (bovine)” value (TR (bovine)) was “NE at 10 μM” and the “Macs Viabil. (50 μM)” value (mouse macrophages) was 91% ±5%.

For O=C(O)CCN1C(=O)/C(=C\c2ccc(-c3cccc(C(F)(F)F)c3)o2)SC1=S [2556-0286], the “Lpd (porcine)” value (Lpd (porcine)) was “NE at 10 μM”, the “αKG-DH (porcine)” value (αKG-DH (porcine)) was “NE at 50 μM” and the Ki (SucB) was 3 µM. The “TR (bovine)” value (TR (bovine)) was “NE at 10 μM” and the “Macs Viabil. (50 μM)” value (mouse macrophages) was 80% ±1%.

With Cc1cc(C)cc(/N=C2/NC(=O)/C(=C\c3cc(Br)c(O)c([N+](=O)O)c3)S2)c1 [2368-0687] the “Lpd (porcine)” value (Lpd (porcine)) was “NE at 10 µM”, the “αKG-DH (porcine) inhibition” value (αKG-DH (porcine)) was 5-10% inhi- bition at 50 μM and the “TR (bovine)” value (TR (bovine)) was “NE at 10 μM”. The “Macs Viabil. (50 μM)” value (mouse macrophages) was 70% ±13% *clu- sters.

B1: AhpD (protein encoded by the ahpD gene, Rv2429, of Mycobacterium tuberculosis) (enzyme)
chain: MSIEKLKAALPEYAKDIKLNLSSITRSSVLDQEQLWGTLLASAAATRNPQVLADIGAEATDHLSAAARHAALGAAAIMGMNNVFYRGRGFLEGRYDDLRPGLRMNIIANPGIPKANFELWSFAVSAINGCSHCLVAHEHTLRTVGVDREAIFEALKAAAIVSGVAQALATIEALSPS
notes: Homotrimer in the crystal; also called recombinant AhpD
B1: binds [1].
